Measured values taken from ChEMBL document CHEMBL1201862, “PubChem BioAssay data set” (2004).
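96-well plates; 48 h exposure; 5 concentrations. Endpoints by linear interpolation between flanking doses. Not reached: highest tested concentration assigned. At the GI50, growth is halved.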 Activity calls are given as the source filed them. No stated cut-off is given here; in the data, active = GI50 up to about 1.1 µM and inactive = higher.

Key:
Test in all cases: DTP human tumour cell line panel, 48 h
786-0 = tested on: 786-0
COLO 205 = tested on: COLO 205
EKVX = tested on: EKVX
HCC 2998 = tested on: HCC 2998
HOP-92 = tested on: HOP-92
HT-29 = tested on: HT-29
IGROV-1 = tested on: IGROV-1
LOX IMVI = tested on: LOX IMVI
M14 = tested on: M14
MCF7 = tested on: MCF7
MDA-MB-435 = tested on: MDA-MB-435
NCI/ADR-RES = tested on: NCI/ADR-RES
OVCAR-3 = tested on: OVCAR-3
OVCAR-8 = tested on: OVCAR-8
RPMI-8226 = tested on: RPMI-8226
RXF 393 = tested on: RXF 393
SNB-75 = tested on: SNB-75
SW-620 = tested on: SW-620
U-251 = tested on: U-251

Structure (SMILES) | GI50 (786-0) | GI50 (COLO 205) | GI50 (EKVX) | GI50 (HCC 2998) | GI50 (HOP-92) | GI50 (HT-29) | GI50 (IGROV-1) | GI50 (LOX IMVI) | GI50 (M14) | GI50 (MCF7) | GI50 (MDA-MB-435) | GI50 (NCI/ADR-RES) | GI50 (OVCAR-3) | GI50 (OVCAR-8) | GI50 (RPMI-8226) | GI50 (RXF 393) | GI50 (SNB-75) | GI50 (SW-620) | GI50 (U-251)
Cc1ccnc2nc(-c3ccc(Cl)cc3)cc(O)c12 | 4.46 µM (inactive) | 2.33 µM (inactive) | 29.7 µM (inactive) | > 27.4 µM (inactive) | 2.17 µM (inactive) | 3.23 µM (inactive) | 3.01 µM (inactive) | 4.13 µM (inactive) | 8.63 µM (inactive) | 2.94 µM (inactive) | 0.578 µM (active) | 3.88 µM (inactive) | 4.89 µM (inactive) | > 27 µM (inactive) | 2.94 µM (inactive) | 8.45 µM (inactive) | 2.17 µM (inactive) | 3.35 µM (inactive) | 4.07 µM (inactive)
c1ccc2c(c1)-c1ccccc1C2NC1=NCCO1 | 28.1 µM (inactive) | 18.9 µM (inactive) | 40.6 µM (inactive) | 15.6 µM (inactive) | 13.9 µM (inactive) | 21.7 µM (inactive) | 16.4 µM (inactive) | 20.5 µM (inactive) | 17.2 µM (inactive) | 22.5 µM (inactive) | 23 µM (inactive) | 23.4 µM (inactive) | 23.1 µM (inactive) | 20.8 µM (inactive) | 28.4 µM (inactive) | 42.2 µM (inactive) | 15.4 µM (inactive) | 54.2 µM (inactive) | 31.3 µM (inactive)
N#Cc1cnn2c1n[n+]([O-])c1ccc(Cl)cc12 | 27.4 µM (inactive) | 16.6 µM (inactive) | 2.9 µM (inactive) | 1.92 µM (inactive) | 2.19 µM (inactive) | 7.98 µM (inactive) | 4.14 µM (inactive) | 3.98 µM (inactive) | 8.13 µM (inactive) | 28.7 µM (inactive) | 11.9 µM (inactive) | 9.68 µM (inactive) | 2.96 µM (inactive) | 11.5 µM (inactive) | 23.8 µM (inactive) | 15 µM (inactive) | 6.9 µM (inactive) | 9.14 µM (inactive) | 17 µM (inactive)
CCOC(=O)c1nc2cc(C(F)(F)F)ccc2nc1Nc1cc(OC)c(OC)c(OC)c1 | > 100 µM (inactive) | > 100 µM (inactive) | > 100 µM (inactive) | > 100 µM (inactive) | > 100 µM (inactive) | > 100 µM (inactive) | > 100 µM (inactive) | > 100 µM (inactive) | > 100 µM (inactive) | > 100 µM (inactive) | > 100 µM (inactive) | > 100 µM (inactive) | > 100 µM (inactive) | > 100 µM (inactive) | > 100 µM (inactive) | > 100 µM (inactive) | > 100 µM (inactive) | > 100 µM (inactive) | > 100 µM (inactive)
COc1ccc2nc3ccccc3c(NCCCCN(CCCl)CCCl)c2c1 | 0.0436 µM (active) | 0.368 µM (active) | 0.535 µM (active) | 1.04 µM (active) | 0.527 µM (active) | 0.043 µM (active) | 0.227 µM (active) | 0.0596 µM (active) | 0.22 µM (active) | 0.202 µM (active) | 0.323 µM (active) | 0.448 µM (active) | 0.118 µM (active) | 0.0218 µM (active) | < 0.0476 µM (active) | 0.0212 µM (active) | 0.197 µM (active) | 0.0188 µM (active) | 0.0752 µM (active)
